Drawing on patent publication US8927587B2, “Chemical compounds” (Pfizer Limited, priority 2012, dated 2015), this text covers IC50 for 18 molecules.

T1 sequence (Q9Y5Y9 whole entry): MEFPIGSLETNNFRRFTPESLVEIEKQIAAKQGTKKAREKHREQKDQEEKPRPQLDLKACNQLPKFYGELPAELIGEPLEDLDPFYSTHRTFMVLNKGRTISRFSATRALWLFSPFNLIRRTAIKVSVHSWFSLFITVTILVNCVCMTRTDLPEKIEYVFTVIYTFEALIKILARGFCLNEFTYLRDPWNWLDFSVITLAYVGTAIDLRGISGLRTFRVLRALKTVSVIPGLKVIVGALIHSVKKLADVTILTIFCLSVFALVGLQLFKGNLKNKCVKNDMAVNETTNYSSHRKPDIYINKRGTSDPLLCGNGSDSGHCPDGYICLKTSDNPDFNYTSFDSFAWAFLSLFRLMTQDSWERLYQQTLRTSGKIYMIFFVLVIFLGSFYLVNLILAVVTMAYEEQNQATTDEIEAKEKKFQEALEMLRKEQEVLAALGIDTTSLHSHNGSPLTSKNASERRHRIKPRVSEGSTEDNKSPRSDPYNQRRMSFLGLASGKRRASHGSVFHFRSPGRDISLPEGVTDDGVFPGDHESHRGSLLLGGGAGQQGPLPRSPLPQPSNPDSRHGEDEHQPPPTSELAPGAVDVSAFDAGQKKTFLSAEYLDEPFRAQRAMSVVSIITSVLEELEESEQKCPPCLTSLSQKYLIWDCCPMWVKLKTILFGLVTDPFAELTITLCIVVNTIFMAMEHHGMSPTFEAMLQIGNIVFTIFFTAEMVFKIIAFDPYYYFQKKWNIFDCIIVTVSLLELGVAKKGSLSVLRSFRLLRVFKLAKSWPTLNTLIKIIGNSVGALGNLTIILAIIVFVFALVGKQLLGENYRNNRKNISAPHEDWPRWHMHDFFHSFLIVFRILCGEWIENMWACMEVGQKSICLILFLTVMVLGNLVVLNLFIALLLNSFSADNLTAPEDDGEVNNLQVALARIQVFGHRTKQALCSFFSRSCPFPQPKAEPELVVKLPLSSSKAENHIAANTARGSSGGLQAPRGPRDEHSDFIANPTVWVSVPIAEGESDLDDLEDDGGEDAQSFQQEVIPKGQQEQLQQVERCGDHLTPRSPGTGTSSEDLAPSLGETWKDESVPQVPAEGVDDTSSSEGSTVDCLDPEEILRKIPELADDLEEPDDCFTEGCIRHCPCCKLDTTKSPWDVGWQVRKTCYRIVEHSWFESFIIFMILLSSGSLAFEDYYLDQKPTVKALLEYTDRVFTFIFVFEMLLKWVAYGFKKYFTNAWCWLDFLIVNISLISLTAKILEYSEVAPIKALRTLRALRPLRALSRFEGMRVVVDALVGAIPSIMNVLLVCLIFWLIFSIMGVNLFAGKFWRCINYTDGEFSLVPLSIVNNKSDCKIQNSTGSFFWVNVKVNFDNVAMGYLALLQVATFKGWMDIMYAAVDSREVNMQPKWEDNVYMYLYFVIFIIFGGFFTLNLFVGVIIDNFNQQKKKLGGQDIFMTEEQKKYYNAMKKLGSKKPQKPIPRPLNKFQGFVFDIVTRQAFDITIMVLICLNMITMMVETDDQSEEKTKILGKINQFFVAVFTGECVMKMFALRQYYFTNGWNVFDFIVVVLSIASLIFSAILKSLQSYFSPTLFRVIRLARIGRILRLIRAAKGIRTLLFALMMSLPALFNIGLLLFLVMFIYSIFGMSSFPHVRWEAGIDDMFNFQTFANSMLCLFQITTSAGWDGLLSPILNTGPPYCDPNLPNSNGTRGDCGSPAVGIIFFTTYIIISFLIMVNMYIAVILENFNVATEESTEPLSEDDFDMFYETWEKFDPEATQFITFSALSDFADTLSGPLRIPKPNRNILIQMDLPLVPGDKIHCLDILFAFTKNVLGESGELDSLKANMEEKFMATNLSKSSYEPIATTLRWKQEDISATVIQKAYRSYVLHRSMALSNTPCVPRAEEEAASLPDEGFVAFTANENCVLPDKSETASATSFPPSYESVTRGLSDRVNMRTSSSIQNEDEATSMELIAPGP

The assay has as its target T1, hNav1.8 (Homo sapiens, UniProt Q9Y5Y9).
T1 construct: host or cells: HEK cells, stably transfected
The experiment in a line: hNav1.8 whole-cell patch-clamp electrophysiology (conventional or PatchXpress 7000) in stably transfected HEK cells. The format is cell-based. The settings on record: estimated IC50 calculated from single point % inhibition; HEK cells expressing hNav1.8; 8 sec prepulse to V1/2, 20 msec step to 0 mV; average of replicates; read-out: Nav1.8 EIC50. The source says: The ability of the benzimidazole derivatives of the formula (I) to inhibit the Nav1.8 channel may be measured using the assay described below.
HEK cells stably transfected with hNav1.8, purchased from Millipore (Millipore Corp., Billerica, Mass. 01821), were maintained according to manufacturer's instructions. For electrophysiological studies, cells were removed from the culture flask by brief trypsinization and re-plated at low density onto glass cover slips. Cells were typically used for electrophysiological experiments within 24 to 72 h after plating.
Cover slips containing HEK cells expressing hNav1.8 were placed in a bath on the stage of an inverted microscope and perfused (approximately 1 ml/min) with extracellular solution of the following composition: 138 mM NaCl, 2 mM CaCl2, 5.4 mM KCl, 1 mM MgCl2, 10 mM glucose, and 10 mM HEPES, pH 7.4, with NaOH. […] The osmolarity of the extracellular and intracellular solutions was 300 mOsm/kg and 295 mOsm/kg, respectively. All recordings were made at room temperature (22-24° C.) using AXOPATCH 200B amplifiers and PCLAMP software (Axon Instruments, Burlingame, Calif.).
hNav1.8 currents in HEK cells were measured using the whole-cell configuration of the patch-clamp technique (Hamill et al., 1981). Uncompensated series resistance was typically 2 to 5 mega ohms and >85% series resistance compensation was routinely achieved. As a result, voltage errors were negligible and no correction was applied. Current records were acquired at 20 to 50 KHz and filtered at 5 to 10 KHz.
HEK cells stably transfected with hNav1.8 were viewed under Hoffman contrast optics and placed in front of an array of flow pipes emitting either control or compound-containing extracellular solutions. All compounds were dissolved in dimethyl sulfoxide to make 10 mM stock solutions, which were then diluted into extracellular solution to attain the final concentrations desired.
The voltage-dependence of inactivation was determined by applying a series of depolarizing prepulses (8 sec long in 10 mV increments) from a negative holding potential. The voltage was then immediately stepped to 0 mV to assess the magnitude of the sodium current. Currents elicited at 0 mV were plotted as a function of prepulse potential to allow estimation of the voltage at which 50% of the channels were inactivated (midpoint of inactivation or V1/2). Compounds were tested for their ability to inhibit hNav1.8 sodium channels by activating the channel with a 20 msec voltage step to 0 mV following an 8 second conditioning prepulse to the empirically determined V1/2. Compound effect (% inhibition) was determined by difference in current amplitude before and after application of test compounds. For ease of comparison, “estimated IC50” values were calculated from single point electrophysiology data by the following equation, (tested concentration, uM)×(100-% inhibition/% inhibition). Inhibition values<20% and >80% were excluded from the calculation.
In some cases electrophysiological assays were conducted with PatchXpress 7000 hardware and associated software (Molecular Devices Corp). All assay buffers and solutions were identical to those used in conventional whole-cell voltage clamp experiments described above. hNav1.8 cells were grown as above to 50%-80% confluency and harvested by trypsinization. Trypsinized cells were washed and resuspended in extracellular buffer at a concentration of 1×10^6 cells/ml. The onboard liquid handling facility of the PatchXpress was used for dispensing cells and application of test compounds. Determination of the voltage midpoint of inactivation was as described for conventional whole-cell recordings. Cells were then voltage-clamped to the empirically determined V1/2 and current was activated by a 20 msec voltage step to 0 mV.
Estimated IC50 values for the compounds of formula (I) exemplified above are as follows. […]
On to `CC(C)[C@H](N)c1nc2cc(-c3ccc(C#N)cc3)ccc2[nH]1` [Example 52, 4-{2-[(1S)-1-amino-2-methylpropyl]-1H-benzimidazol-5-yl}benzonitrile], for which the IC50 is 703 nM.
As for `CC[C@@H](N)c1nc2cc(-c3ccc(C#N)cc3)ccc2[nH]1` [Example 53, 4-{2-[(1R)-1-aminopropyl]-1H-benzimidazol-5-yl}benzonitrile], the IC50 was 562 nM.
With `C[C@@H](N)c1nc2cc(-c3ccc(C#N)cc3)ccc2[nH]1` [Example 54, 4-{2-[(1R)-1-aminoethyl]-1H-benzimidazol-5-yl}benzonitrile], the IC50 is 662 nM.
For `CC1(C)[C@@H]2[C@@H](c3nc4cc(-c5ccc(C#N)cc5)ccc4[nH]3)NC[C@@H]21` [Example 55, 4-{2-[(1R,2S,5S)-6,6-dimethyl-3-azabicyclo[3.1.0]hex-2-yl]-1H-benzimidazol-5-yl}benzonitrile], the IC50 is 77.4 nM.
With `CC(C)[C@@H](N)c1nc2cc(-c3ccc(C#N)cc3)ccc2[nH]1` [Example 56, 4-{2-[(1R)-1-amino-2-methylpropyl]-1H-benzimidazol-5-yl}benzonitrile], the IC50 was 97.5 nM.
Take `CC(C)(C)[C@H](N)c1nc2cc(-c3ccc(C#N)cc3)ccc2[nH]1` [Example 57, 4-{2-[(1S)-1-amino-2,2-dimethylpropyl]-1H-benzimidazol-5-yl}benzonitrile]: the IC50 was 2530 nM.
Then `CCCC[C@@H](N)c1nc2cc(-c3ccc(C#N)cc3)ccc2[nH]1` [Example 58, 4-{2-[(1R)-1-aminopentyl]-1H-benzimidazol-5-yl}benzonitrile], with 537 nM.
Regarding `N#Cc1ccc(-c2ccc3[nH]c(C4(N)CCCC4)nc3c2)cc1` [Example 59, 4-[2-(1-aminocyclopentyl)-1H-benzimidazol-5-yl]benzonitrile], the IC50 was 105 nM.
Then `CCCC[C@H](N)c1nc2cc(-c3ccc(C#N)cc3)ccc2[nH]1` [Example 60, 4-{2-[(1S)-1-aminopentyl]-1H-benzimidazol-5-yl}benzonitrile], with 166 nM; and `N#Cc1ccc(-c2ccc3[nH]c([C@@H]4C[C@H](F)CN4)nc3c2)cc1` [Example 61, 4-{2-[(2S,4S)-4-fluoropyrrolidin-2-yl]-1H-benzimidazol-5-yl}benzonitrile], with 698 nM; and `C[C@H](O)[C@@H](N)c1nc2cc(-c3ccc(C#N)cc3)ccc2[nH]1` [Example 62, 4-{2-[(1S,25)-1-amino-2-hydroxypropyl]-1H-benzimidazol-5-yl}benzonitrile], with 580 nM.
`C[C@H](N)c1nc2cc(-c3ccc(C#N)cc3)ccc2[nH]1` [Example 64, 4-{2-[(1S)-1-aminoethyl]-1H-benzimidazol-5-yl}benzonitrile]: the IC50 was 1000 nM.
With `CCCCc1ccc2[nH]c(C(C)(C)N)nc2c1` [Example 65, 2-(5-Butyl-1H-benzimidazol-2-yl)propan-2-amine], the IC50 was 2710 nM.
As for `CC(C)(N)c1nc2cc(C3CCCCC3)ccc2[nH]1` [Example 66, 2-(5-Cyclohexyl-1H-benzimidazol-2-yl)propan-2-amine], the figure is 1000 nM; as for `CCC(C)(C)c1ccc2[nH]c(C(C)(C)N)nc2c1` [Example 68, 2-[5-(2-Methylbutan-2-yl)-1H-benzimidazol-2-yl]propan-2-amine], 635 nM; as for `CCCc1ccc2[nH]c(C(C)(C)N)nc2c1` [Example 69, 2-(5-Propyl-1H-benzimidazol-2-yl)propan-2-amine], 3900 nM.
In the case of `CC(C)(N)c1nc2cc(-c3cc(F)cc(C#N)c3)ccc2[nH]1` [Example 70, 3-[2-(1-Amino-1-methylethyl)-1H-benzimidazol-5-yl]-5-fluorobenzonitrile], the IC50 is 3160 nM.
As for `CC(C)(N)c1nc2cc(-c3ccc(Cl)c(C#N)c3)ccc2[nH]1` [Example 71, 5-[2-(1-Amino-1-methylethyl)-1H-benzimidazol-5-yl]-2-chlorobenzonitrile], the figure is 3930 nM.
